From PubChem BioAssay (NCI)
Values joined by “and” are separate entries in the source; they are usually repeats but may differ in a detail not shown here. Equal values may be shown once.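 How tested: cells in 96-well plates exposed to compound for 48 hours at five concentrations. GI50 marks 50% less growth. TGI: concentration producing complete growth inhibition.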

How the values were obtained:
Test in all cases: growth of human tumour cells (NCI), 48 h
CAKI-1 renal = system: CAKI-1 renal
EKVX NSCLC = system: EKVX NSCLC
HCT-15 colon = system: HCT-15 colon
K-562 leukemia = system: K-562 leukemia
MCF7 breast = system: MCF7 breast
OVCAR-3 ovarian = system: OVCAR-3 ovarian
SF-539 CNS = system: SF-539 CNS
SNB-75 CNS = system: SNB-75 CNS
U251 CNS = system: U251 CNS
UACC-62 melanoma = system: UACC-62 melanoma

SMILES	TGI (CAKI-1 renal) [µM]	TGI (EKVX NSCLC)	TGI (HCT-15 colon)	TGI (K-562 leukemia)	TGI (MCF7 breast)	TGI (OVCAR-3 ovarian)	TGI (SF-539 CNS)	TGI (SNB-75 CNS)	TGI (U251 CNS)	TGI (UACC-62 melanoma)	GI50 (CAKI-1 renal) [µM]	GI50 (EKVX NSCLC) [µM]	GI50 (HCT-15 colon) [nM]	GI50 (K-562 leukemia) [nM]	GI50 (MCF7 breast) [nM]	GI50 (SF-539 CNS) [nM]	GI50 (SNB-75 CNS) [µM]	GI50 (U251 CNS) [µM]	GI50 (OVCAR-3 ovarian)	GI50 (UACC-62 melanoma) [µM]
C#CC1(OC(C)=O)CCC2C3CC=C4C=C(OC(C)=O)CCC4(C)C3CCC21C (centres undefined)	83.2	80 µM	62.5 µM	83.2 µM	49.9 µM	41.5 µM	40.1 µM	> 100 µM	38.9 µM	44.5 µM	–	–	–	–	–	–	–	–	–	–
Cc1cc(=O)oc2c(C)c(O)ccc12	> 100	> 100 µM	> 100 µM	> 100 µM	> 100 µM	> 100 µM	> 100 µM	> 100 µM	> 100 µM	> 100 µM	–	–	–	–	–	–	–	–	–	–
O=S(=O)(NCCCNc1nccc(-c2c(-c3ccc(F)c(O)c3)nc3sccn23)n1)c1ccc(F)cc1	> 100	14.9 µM	10.8 µM	> 100 µM	7.76 µM	–	17.4 µM	8.38 µM	> 100 µM	–	3.57	3.1	2420	1980	2390	3500	2.02	3.47	–	–
COc1cccc(/C=C/[N+](=O)[O-])c1	–	76.2 µM	6.18 µM	11.5 µM	3.93 µM	4.08 µM	8.72 µM	27.9 µM	14.8 µM	12.8 µM	–	19	2170	2920	1200	2640	12.4	4.04	1.96 µM	3.29
O=C1NC(=O)C(c2ccccc2Cl)=C1Nc1cc(Cl)c(O)c(Cl)c1	> 25	> 25 µM	> 25 µM	> 25 µM	> 25 µM	24.9 µM	> 25 µM	> 25 µM	> 25 µM	> 25 µM	> 21.5	> 25	15000	12300	> 13800	13900	> 13	13.3	9.7 µM	11.4
C[C@]12CC[C@H](OC3OC(CO)C(O)C(O)C3O)C[C@H]1CC[C@@H]1[C@@H]2CC[C@]2(C)[C@@H](C3=CCOC3=O)CC[C@]12O (some centres undefined)	–	29.3 µM and > 100 µM	50 µM and > 100 µM	50 µM and > 100 µM	47.2 µM and > 100 µM	50 µM and > 100 µM	7.96 µM and 1.6 µM	31.6 µM and > 100 µM	47.2 µM and > 100 µM	30.8 µM and > 100 µM	–	> 100	> 100000	> 100000	> 100000	198	–	–	42.1 µM and > 100 µM	–
COc1ccc(/C(COc2ccc3c(=O)c(-c4ccccc4)coc3c2)=N\O)cc1	7.47	38.7 µM	12.9 µM	> 100 µM	> 50.9 µM	10.8 µM	5.32 µM	> 70.9 µM	> 39.6 µM	21.2 µM	1.46	4.94	349	67.4	3160	1600	14.5	1.1	0.987 µM	0.662
